The values that follow come from US20220339135A1, “COMPOSITIONS AND METHODS FOR MODULATING AN INFLAMMATORY RESPONSE” (Enzychem Lifesciences Corporation, priority 2019, published 2022).

Structures are written as SMILES.

Series [1] concerns MIP-2, IL-6, CXCL8 in RAW 264.7 or HaCaT cells. Kind of series: IMQ-induced chemokine release, ELISA. The conditions noted are these: PLAG 1, 10, 100 μg/ml, IMQ 12 hours, dose-dependent. The class given is cell-based. The procedure:
RAW 264.7 or HaCaT cells were divided into three groups: 1) control (non-treated) group, 2) IMQ treated group, and 3) IMQ/PLAG treated group. For IMQ treated group, cells were treated with 1, 10, 100 μg/ml of DMSO (as solvent control) for 1 hour and treated with 5 μg/mL of IMQ for 12 hours. For IMQ/PLAG treated group, cells were treated with 1, 10, 100 μg/ml of PLAG for 1 hour and treated with 5 μg/mL of IMQ for 12 hours. MIP-2 (A), IL-6 (B) and CXCL8 (C) in the culture supernatants were analyzed with the cognate antibody using ELISA kit. Modulation of CXCL8 expression in the IMQ treated HaCaT cells by MAPK inhibitors, SCH 772984 (ERK inhibitor, (D)), SP600125 (JNK inhibitor, (E)) and SB203580 (p38 inhibitor, (F)) was evaluated using ELISA kit (BD bioscience, New Jersey, USA) according to the manufacturer's instructions. The cytokine levels were estimated by interpolation from a standard curve using an ELISA reader (Molecular Devices, Sunnyvale, USA) at 450 nm.
A general note: ELISA stands for enzyme-linked immunosorbent assay.

In another series the test system is HMGB1 and S100A9. Kind of series: Radiation-induced DAMP molecules in mice serum, western blot. The conditions noted are these: 6.11Gy, PLAG 50, 250 mg/kg oral 3 days. It is filed as in vivo. As to the method:
The total-body of mice were irradiated with a gamma-ray of 6.11Gy on day 0. After that, the body weight of 1 day was measured and divided into 3 groups according to the average. PLAG (50, 250 mg/kg) or PBS was orally administered for 3 days from 1 day and sacrificed on the 3rd day. Add 3 ul serum to 97 ul of 1×SDS sample buffer and boiled for 10 min. Proteins from each sample were separated by sodium dodecyl sulfate-polyacrylamide gel electrophoresis on 8% polyacrylamide gels and the proteins were blotted onto a PVDF membrane (Millipore Corporation, Germany). The membrane was blocked with 5% non-fat dried milk (BD bioscience) in PBS containing 0.05% Tween-20 (Calbiochem) for 1 h. The membrane was incubated with anti-HMGB1 (abcam), anti-MRP14 (abcam) at 4° C. overnight. After washing with PBS containing 0.05% Tween-20, the membrane was stained with goat anti-rabbit IgG peroxidase (ENZO). Target proteins were detected with Immobilon Western Chemiluminescent HRP Substrate (Millipore Corporation).
Background: A western blot detects proteins with antibodies after separation by electrophoresis.

For series [2], the system named is radiation-induced lung injury. Kind of series: Radiation-induced lung injury in mice. The class given is in vivo. As to the method: Balb/c mice were grouped into four groups: 1) control group, 2) radiation group, 3) radiation+EC-18 50 mg/kg of PLAG, and 4) radiation+EC-18 250 mg/kg of PLAG. Lung was extracted at day 3 after 6.11Gy of TBI by γ-ray (FIG. 37A). EC-18 was treated daily. Tissue was fixed with formaldehyde, and H&E staining was carried out.

Series [3] has as its system chemotherapy-induced neutropenia. The series can be described thus: Chemotherapy-induced neutropenia in pancreatic cancer patients. The class given is in vivo, human. An excerpt: From January 2014 to September 2014, 16 patients with histologically or cytologically confirmed unresectable pancreatic cancer were enrolled in this study. […] Historical controls were also recruited from Asan Medical Center from March 2012 to December 2013. The eligibility criteria for the control group were the same as those for cases who intake PLAG during gemcitabine-based chemotherapy. The control group (n=32) was matched to the PLAG group (n=16) based on age, performance status, chemotherapy cycle, comorbidity, and disease extent. This study was approved by a hospital institutional review board.
All patients received gemcitabine 1,000 mg/m^2 on days 1, 8, and 15 of each 4-week schedule and daily erlotinib at 100 mg orally. In the PLAG group, PLAG 500 mg was orally administered twice daily from the start of the chemotherapy to the completion. Hematology and serum chemistry analyses were performed at screening baseline, then weekly until the end of the study. Febrile neutropenia (FN) was defined as an ANC of less than 1,000/mm^3 and an oral temperature of more than 38° C. on the same day or the following day after chemotherapy. If on the day of chemotherapy administration, a patient's ANC was reduced to 500-1,000/mm^3 or if the absolute platelet count was reduced to 50,000-100,000/mm^3, the gemcitabine dose was reduced by 75%. Gemcitabine was omitted for 1 week if the neutrophil count was lower than 500/mm^3, or the absolute platelet count was lower than 50,000/mm^3. […] Erlotinib dose was interrupted in patients within tolerable rash and was reduced or discontinued if symptoms persisted for 10-14 days. Erlotinib dose was reduced for grade 2 diarrhea persisting for 48-72 h and for grade 3 diarrhea following resolution to grade 1; erlotinib was permanently discontinued for grade 4 diarrhea. Treatment continued until disease progression unacceptable toxicity, withdrawal of patient's consent or physician's decision. Safety was evaluated throughout the entire study. Toxicity was graded based on the NCI Common Terminology Criteria for Adverse Events (CTCAE) version 3.0.
The primary endpoint was neutropenia, and the secondary endpoint was a safety profile. All analyses were performed using SPSS version 17.0 (SPSS Inc., Chicago, Ill., USA). Descriptive statistics were used to evaluate demographics, and safety data continuous variables were compared using the Mann-Whitney U test, paired t-test, and independent T-test. A P value of <0.05 was considered statistically significant.

Turning to `CCCCC/C=C\C/C=C\CCCCCCCC(=O)OC(COC(C)=O)COC(=O)CCCCCCCCCCCCCCC` (racemic) [PLAG, 1-palmitoyl-2-linoleoyl-3-acetylglycerol], the “MIP-2, IL-6, CXCL8 induced by IMQ” value in series [1] is given as “gradually decreased”. Besides, the “level of HMGB1 and S100A9 induced by radiation” value in the series on HMGB1 and S100A9 is recorded as “significantly decreased”. The pulmonary capillary leakage entry in series [2] (6.11Gy TBI, day 3, dose-dependently) is reported as “less pulmonary capillary leakage”. Besides, the “leakage erythrocyte at the interstitial tissue” value in series [2] (PLAG 50mpk and 250mpk) is recorded as “not observed”. Further, the “incidence of neutropenia (ANC<1,500/mm^3, grade 2-4)” value in series [3] (PLAG 500 mg orally twice daily with gemcitabine + erlotinib, n=16) came out at 37.5%. Moreover, in series [3] (PLAG group), the “ANC nadir (relative to baseline)” value is recorded as “about 0.75” and the “febrile neutropenia (FN)” value is listed as “did not occur”. Moreover, the “severe neutropenia (ANC<500/mm^3, grade 4)” value in series [3] (PLAG group vs control group) is “developed only in the control group”. For the same molecule, in series [3] (including nausea/vomiting, bone pain, fatigue, liver dysfunction), the “adverse events related to PLAG during chemotherapy” value is on record as “no adverse events related to PLAG”. Besides, the “decrease of ANCs from the baseline level” value in series [3] (vs control group, P<0.05) was “decreased significantly less”.
